# US20250296971A1, “GASTRIC INHIBITORY PEPTIDE RECEPTOR LIGANDS” (priority 2021, published 2025)
# *1 amine or outer side, *2 acyl side, *3 side chain or, on linkers, in order; H or OH if unused. Where a SMILES comes first, the peptide text is derived from it. Bridges are numbered along the chain shown (N, C = ends). [ ]: non-standard residue; d: D form. The star is where a group is joined. X5 = NC(=O)[C@H](CCCCNC(=O)CN1CCN(CC(=O)O)CCN(CC(=O)O)CCN(CC(=O)O)CC1)NC(=O)CCC(=O)NCCCOCCOCCOCCCN*; X3 = O=C(O)CN1CCN(CC(=O)O)CCN(CC(=O)NCCCOCCOCCOCCCN*)CCN(CC(=O)O)CC1; Trp(5-Cl) = N[C@@H](Cc1c[nH]c2ccc(Cl)cc12)C(=O)O; Phe(3,5-Cl2) = N[C@@H](Cc1cc(Cl)cc(Cl)c1)C(=O)O; Pyridine(2,6-diCH2) = c1cc(C[*:1])nc(C[*:2])c1; Trp(7-aza) = N[C@@H](Cc1c[nH]c2ncccc12)C(=O)O; X22 = O=C([C@H](Cc1cccc(Cl)c1Cl)N[*:1])[*:2]; 2Nal = N[C@@H](Cc1ccc2ccccc2c1)C(=O)O; mXylylene = c1cc(C[*:1])cc(C[*:2])c1; Bta = N[C@@H](Cc1csc2ccccc12)C(=O)O; Hyp = O=C(O)[C@@H]1C[C@@H](O)CN1; NMeE = CN[C@@H](CCC(=O)O)C(=O)O; Suc = O=C(CCC(=O)[*:2])[*:1]; Tle = CC(C)(C)[C@H](N)C(=O)O; Thp = NC1(C(=O)O)CCOCC1; Aib = CC(C)(N)C(=O)O
# Target: T1, GIPR (CHO-K1-hGIPR cells) (Homo sapiens, UniProt P48546)
# T1 construct: host or cells: CHO-K1
# T1 sequence (P48546 22-466): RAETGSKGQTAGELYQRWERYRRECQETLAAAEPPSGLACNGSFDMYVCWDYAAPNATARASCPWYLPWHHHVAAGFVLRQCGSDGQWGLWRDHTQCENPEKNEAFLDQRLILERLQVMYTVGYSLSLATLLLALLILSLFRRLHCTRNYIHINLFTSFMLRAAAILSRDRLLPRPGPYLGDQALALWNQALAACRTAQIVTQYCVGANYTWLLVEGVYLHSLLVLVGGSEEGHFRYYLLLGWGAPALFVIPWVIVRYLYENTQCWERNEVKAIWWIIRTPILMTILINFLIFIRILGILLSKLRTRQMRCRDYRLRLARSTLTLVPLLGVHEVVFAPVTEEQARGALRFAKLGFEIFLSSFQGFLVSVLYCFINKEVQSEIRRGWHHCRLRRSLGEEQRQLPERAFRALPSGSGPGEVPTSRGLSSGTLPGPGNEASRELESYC
# Test: FACS binding assay
# Details: competition with 20 nM GIP-057, 4° C. for 1 hour, read-out: pIC50 Category (converted)
# In short: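 Peptide binding read by flow cytometry as APC-channel median fluorescence, fitted with a four-parameter logistic to yield EC50 or IC50. Cells were hGIPR-transfected CHO-K1 in PBS with 1% FCS, detected with 1 μg/mL APC-streptavidin, 30 min on ice.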
row,SMILES,IC50 [µM]
1,"CC[C@H](C)[C@@H]1NC(=O)[C@H](CC(C)C)NC(=O)C2(CCOCC2)NC(=O)[C@@H](NC(=O)[C@@H](CC(C)C)NC(=O)[C@H](CCC(=O)O)NC(=O)[C@@H]2C[C@@H](O)CN2C(=O)[C@H](Cc2cc(Cl)cc(Cl)c2)NC(=O)[C@H](Cc2c[nH]c3ccccc23)NC(=O)[C@H](CC(=O)O)NC(C)=O)CSCc2cccc(n2)CSC[C@@H](C(N)=O)NC1=O [GIP-264, Ac-Asp-Trp-Egn-Hyp-Glu-leu-[Cys(2Lut)-Thp-Leu-Ile-Cys]-NH2] (Ac-DW[Phe(3,5-Cl2)][Hyp]E[dL]C[Thp]LIC-NH2; linker 7-11 via Pyridine(2,6-diCH2))",0.01 to 0.0794
2,"CC[C@H](C)[C@@H]1NC(=O)[C@H](CC(C)C)NC(=O)C2(CCOCC2)NC(=O)[C@@H](NC(=O)[C@@H](CC(C)C)NC(=O)[C@H](CCC(=O)O)NC(=O)[C@@H]2C[C@@H](O)CN2C(=O)[C@H](Cc2cccc(Cl)c2Cl)NC(=O)[C@H](Cc2c[nH]c3ccccc23)NC(=O)[C@H](CC(=O)O)NC(C)=O)CSCc2cccc(n2)CSC[C@@H](C(N)=O)NC1=O [GIP-265, Ac-Asp-Trp-Egp-Hyp-Glu-leu-[Cys(2Lut)-Thp-Leu-Ile-Cys]-NH2] (Ac-DW[X22][Hyp]E[dL]C[Thp]LIC-NH2; linker 7-11 via Pyridine(2,6-diCH2))",0.01 to 0.0794
3,"CC(=O)N[C@@H](CC(=O)O)C(=O)N[C@@H](Cc1c[nH]c2ccccc12)C(=O)N[C@@H](Cc1c[nH]c2ccc(Cl)cc12)C(=O)N1C[C@H](O)C[C@H]1C(=O)N[C@@H](CCC(=O)O)C(=O)N[C@H](CC(C)C)C(=O)N[C@H]1CSCc2cccc(n2)CSC[C@@H](C(N)=O)NC(=O)[C@H](Cc2ccccc2)NC(=O)[C@H](CC(C)C)NC(=O)C2(CCOCC2)NC1=O [GIP-266, Ac-Asp-Trp-5Clw-Hyp-Glu-leu-[Cys(2Lut)-Thp-Leu-Phe-Cys]-NH2] (Ac-DW[Trp(5-Cl)][Hyp]E[dL]C[Thp]LFC-NH2; linker 7-11 via Pyridine(2,6-diCH2))",0.01 to 0.0794
4,"CC[C@H](C)[C@@H]1NC(=O)[C@H](CC(C)C)NC(=O)C2(CCOCC2)NC(=O)[C@@H](NC(=O)[C@@H](CC(C)C)NC(=O)[C@H](CCC(=O)O)NC(=O)[C@@H]2C[C@@H](O)CN2C(=O)[C@H](Cc2c[nH]c3ncccc23)NC(=O)[C@H](Cc2c[nH]c3ccccc23)NC(=O)[C@H](CC(=O)O)NC(C)=O)CSCc2cccc(n2)CSC[C@@H](C(N)=O)NC1=O [GIP-267, Ac-Asp-Trp-7Nw-Hyp-Glu-leu-[Cys(2Lut)-Thp-Leu-Ile-Cys]-NH2] (Ac-DW[Trp(7-aza)][Hyp]E[dL]C[Thp]LIC-NH2; linker 7-11 via Pyridine(2,6-diCH2))",0.01 to 0.0794
5,"CC[C@H](C)[C@@H]1NC(=O)[C@H](CC(C)C)NC(=O)[C@@H](C)NC(=O)[C@@H](NC(=O)[C@@H](CC(C)C)NC(=O)[C@H](CCC(=O)O)NC(=O)[C@@H]2CCCN2C(=O)[C@H](Cc2c[nH]c3ccccc23)NC(=O)[C@H](Cc2c[nH]c3ccccc23)NC(=O)[C@H](CC(=O)O)NC(=O)CCC(=O)NCCCOCCOCCOCCCNC(=O)CN2CCN(CC(=O)O)CCN(CC(=O)O)CCN(CC(=O)O)CC2)CSCc2cccc(c2)CSC[C@@H](C(N)=O)NC1=O [GIP-268, DOTA-Ttds-Asp-Trp-Trp-Pro-Glu-leu-[Cys(3MeBn)-ala-Leu-Ile-Cys]-NH2] ({X3-Suc}-DWWPE[dL]C[dA]LIC-NH2; linker 7-11 via mXylylene)",0.1 to 0.794
6,"CC[C@H](C)[C@@H]1NC(=O)[C@H](CC(C)C)NC(=O)[C@@H](C)NC(=O)[C@@H](NC(=O)[C@H](CC(C)C)NC(=O)[C@@H](CCC(=O)O)NC(=O)[C@@H]2CCCN2C(=O)[C@H](Cc2c[nH]c3ccccc23)NC(=O)[C@H](Cc2c[nH]c3ccccc23)NC(=O)[C@H](CC(=O)O)NC(=O)CCC(=O)NCCCOCCOCCOCCCNC(=O)CN2CCN(CC(=O)O)CCN(CC(=O)O)CCN(CC(=O)O)CC2)CSCc2cccc(c2)CSC[C@@H](C(N)=O)NC1=O [GIP-269, DOTA-Ttds-Asp-Trp-Trp-Pro-glu-Leu-[Cys(3MeBn)-ala-Leu-Ile-Cys]-NH2] ({X3-Suc}-DWWP[dE]LC[dA]LIC-NH2; linker 7-11 via mXylylene)",0.1 to 0.794

# The next lines start with the values.
row,IC50 [µM],SMILES
1,0.1 to 0.794,"CC[C@H](C)[C@@H]1NC(=O)[C@H](CC(C)C)NC(=O)[C@@H](C)NC(=O)[C@@H](NC(=O)[C@H](CC(C)C)NC(=O)[C@H](CCC(=O)O)NC(=O)[C@@H]2CCCN2C(=O)[C@H](Cc2c[nH]c3ccccc23)NC(=O)[C@H](Cc2c[nH]c3ccccc23)NC(=O)[C@H](CC(=O)O)NC(=O)CCC(=O)NCCCOCCOCCOCCCNC(=O)CN2CCN(CC(=O)O)CCN(CC(=O)O)CCN(CC(=O)O)CC2)CSCc2cccc(c2)CSC[C@@H](C(N)=O)NC1=O [GIP-271, DOTA-Ttds-asp-Trp-Trp-Pro-Glu-Leu-[Cys(3MeBn)-ala-Leu-Ile-Cys]-NH2] ({X3-Suc}-DWWPELC[dA]LIC-NH2; linker 7-11 via mXylylene)"
2,0.1 to 0.794,"CC[C@H](C)[C@@H]1NC(=O)[C@H](CC(C)C)NC(=O)C(C)(C)NC(=O)[C@@H](NC(=O)[C@H](CC(C)C)NC(=O)[C@H](CCC(=O)O)NC(=O)[C@@H]2CCCN2C(=O)[C@H](Cc2c[nH]c3ccccc23)NC(=O)[C@H](Cc2ccc3ccccc3c2)NC(=O)[C@H](CC(=O)O)NC(C)=O)CSCc2cccc(c2)CSC[C@@H](C(=O)NCCCOCCOCCOCCCNC(=O)CCC(=O)N[C@@H](CCCCNC(=O)CN2CCN(CC(=O)O)CCN(CC(=O)O)CCN(CC(=O)O)CC2)C(N)=O)NC1=O [GIP-272, Ac-Asp-2Ni-Trp-Pro-Glu-Leu-[Cys(3MeBn)-Aib-Leu-Ile-Cys]-Ttds-Lys(DOTA)-NH2] (Ac-D[2Nal]WPELC[Aib]LIC-X5; linker 7-11 via mXylylene)"
3,0.1 to 0.794,"CC[C@H](C)[C@@H]1NC(=O)[C@H](CC(C)C)NC(=O)C(C)(C)NC(=O)[C@@H](NC(=O)[C@H](CC(C)C)NC(=O)[C@H](CCC(=O)O)NC(=O)[C@@H]2CCCN2C(=O)[C@H](Cc2c[nH]c3ccccc23)NC(=O)[C@H](Cc2csc3ccccc23)NC(=O)[C@H](CC(=O)O)NC(C)=O)CSCc2cccc(c2)CSC[C@@H](C(=O)NCCCOCCOCCOCCCNC(=O)CCC(=O)N[C@@H](CCCCNC(=O)CN2CCN(CC(=O)O)CCN(CC(=O)O)CCN(CC(=O)O)CC2)C(N)=O)NC1=O [GIP-273, Ac-Asp-Bta-Trp-Pro-Glu-Leu-[Cys(3MeBn)-Aib-Leu-Ile-Cys]-Ttds-Lys(DOTA)-NH2] (Ac-D[Bta]WPELC[Aib]LIC-X5; linker 7-11 via mXylylene)"
4,0.1 to 0.794,"CC[C@H](C)[C@@H]1NC(=O)[C@H](CC(C)C)NC(=O)C(C)(C)NC(=O)[C@@H](NC(=O)[C@H](CC(C)C)NC(=O)[C@H](CCC(=O)O)N(C)C(=O)[C@@H]2CCCN2C(=O)[C@H](Cc2c[nH]c3ccccc23)NC(=O)[C@H](Cc2c[nH]c3ccccc23)NC(=O)[C@H](CC(=O)O)NC(C)=O)CSCc2cccc(c2)CSC[C@@H](C(=O)NCCCOCCOCCOCCCNC(=O)CCC(=O)N[C@@H](CCCCNC(=O)CN2CCN(CC(=O)O)CCN(CC(=O)O)CCN(CC(=O)O)CC2)C(N)=O)NC1=O [GIP-274, Ac-Asp-Trp-Trp-Pro-Nme-Leu-[Cys(3MeBn)-Aib-Leu-Ile-Cys]-Ttds-Lys(DOTA)-NH2] (Ac-DWWP[NMeE]LC[Aib]LIC-X5; linker 7-11 via mXylylene)"
5,0.1 to 0.794,"CC[C@H](C)[C@@H]1NC(=O)[C@H](CC(C)C)NC(=O)C(C)(C)NC(=O)[C@@H](NC(=O)[C@@H](NC(=O)[C@H](CCC(=O)O)NC(=O)[C@@H]2CCCN2C(=O)[C@H](Cc2c[nH]c3ccccc23)NC(=O)[C@H](Cc2c[nH]c3ccccc23)NC(=O)[C@H](CC(=O)O)NC(C)=O)C(C)(C)C)CSCc2cccc(c2)CSC[C@@H](C(=O)NCCCOCCOCCOCCCNC(=O)CCC(=O)N[C@@H](CCCCNC(=O)CN2CCN(CC(=O)O)CCN(CC(=O)O)CCN(CC(=O)O)CC2)C(N)=O)NC1=O [GIP-275, Ac-Asp-Trp-Trp-Pro-Glu-Tle-[Cys(3MeBn)-Aib-Leu-Ile-Cys]-Ttds-Lys(DOTA)-NH2] (Ac-DWWPE[Tle]C[Aib]LIC-X5; linker 7-11 via mXylylene)"
6,0.1 to 0.794,"CC[C@H](C)[C@@H]1NC(=O)[C@H](C(C)(C)C)NC(=O)C(C)(C)NC(=O)[C@@H](NC(=O)[C@H](CC(C)C)NC(=O)[C@H](CCC(=O)O)NC(=O)[C@@H]2CCCN2C(=O)[C@H](Cc2c[nH]c3ccccc23)NC(=O)[C@H](Cc2c[nH]c3ccccc23)NC(=O)[C@H](CC(=O)O)NC(C)=O)CSCc2cccc(c2)CSC[C@@H](C(=O)NCCCOCCOCCOCCCNC(=O)CCC(=O)N[C@@H](CCCCNC(=O)CN2CCN(CC(=O)O)CCN(CC(=O)O)CCN(CC(=O)O)CC2)C(N)=O)NC1=O [GIP-276, Ac-Asp-Trp-Trp-Pro-Glu-Leu-[Cys(3MeBn)-Aib-Tle-Ile-Cys]-Ttds-Lys(DOTA)-NH2] (Ac-DWWPELC[Aib][Tle]IC-X5; linker 7-11 via mXylylene)"
7,0.1 to 0.794,"CC[C@H](C)[C@@H]1NC(=O)[C@H](CC(C)C)NC(=O)C(C)(C)NC(=O)[C@@H](NC(=O)[C@H](CC(C)C)NC(=O)[C@H](CCC(=O)O)NC(=O)[C@@H]2CCCN2C(=O)[C@H](Cc2c[nH]c3ccccc23)NC(=O)[C@H](Cc2c[nH]c3ccc(Cl)cc23)NC(=O)[C@H](CC(=O)O)NC(C)=O)CSCc2cccc(c2)CSC[C@@H](C(=O)NCCCOCCOCCOCCCNC(=O)CCC(=O)N[C@@H](CCCCNC(=O)CN2CCN(CC(=O)O)CCN(CC(=O)O)CCN(CC(=O)O)CC2)C(N)=O)NC1=O [GIP-277, Ac-Asp-5Clw-Trp-Pro-Glu-Leu-[Cys(3MeBn)-Aib-Leu-Ile-Cys]-Ttds-Lys(DOTA)-NH2] (Ac-D[Trp(5-Cl)]WPELC[Aib]LIC-X5; linker 7-11 via mXylylene)"
